# Data: patent US12491170B2, “Stable treprostinil prodrugs” (United Therapeutics Corporation, priority 2020, dated 2025)
# Read-outs that look alike come from different tables or passages of the source.
# What was measured:
# [1] = Stability in liver microsomes, human; conditions: for AUC: human
# [2] = Stability in cryopreserved hepatocytes, rat; conditions: for AUC: rat
# [3] = Stability in human subcutaneous skin homogenate; conditions: for AUC: human
# [4] = Stability in cryopreserved hepatocytes, dog; conditions: for AUC: dog
# [5] = dog
# [6] = rat
# [7] = Stability in liver microsomes, rat
# [8] = Stability in cryopreserved hepatocytes, human; conditions: for AUC: human
# [9] = Stability in liver microsomes, dog
smiles,measurement,setting,value
CCCCCC(CCC1C(O)CC2Cc3c(cccc3OCC(=O)O)CC21)OCC (centres unmarked) [XLVII],Trep Concentration 0 min,[1],0 µM
same,Trep Concentration 10 min,[1],0.0448 µM
same,Trep Concentration 20 min,[1],0.0686 µM
same,Trep Concentration 30 min,[1],0.0816 µM
same,Trep Concentration 60 min,[1],0.124 µM
same,AUC,[1],4.63 µmol·min/L
same,Trep Concentration (μM) 0 min,[2],0 µM
same,Trep Concentration (μM) 15 min,[2],0.0168 µM
same,Trep Concentration (μM) 30 min,[2],0.0209 µM
same,Trep Concentration (μM) 60 min,[2],0.0231 µM
same,Trep Concentration (μM) 120 min,[2],0.0216 µM
same,AUC,[2],2.41 µmol·min/L
same,Trep Concentration 0 min,[3],0 µM
same,Trep Concentration (μM) 0 min,[4],0 µM
same,Trep Concentration (μM) 15 min,[4],0 µM
same,Trep Concentration (μM) 30 min,[4],0 µM
same,Trep Concentration (μM) 60 min,[4],0.00355 µM
same,Trep Concentration (μM) 120 min,[4],0.00371 µM
same,AUC,[4],0.27 µmol·min/L
same,AUC,[5],1.62 µmol·min/L
same,AUC,[6],2.90 µmol·min/L
same,Trep Concentration 0 min,[7],0 µM
same,Trep Concentration 10 min,[7],0.0292 µM
same,Trep Concentration 20 min,[7],0.0421 µM
same,Trep Concentration 30 min,[7],0.0553 µM
same,Trep Concentration 60 min,[7],0.0719 µM
same,Trep Concentration (μM) 0 min,[8],0 µM
same,Trep Concentration (μM) 15 min,[8],0.0152 µM
same,Trep Concentration (μM) 30 min,[8],0.0199 µM
same,Trep Concentration (μM) 60 min,[8],0.0215 µM
same,Trep Concentration (μM) 120 min,[8],0.0212 µM
same,AUC,[8],2.28 µmol·min/L
same,Trep Concentration 0 min,[9],0 µM
same,Trep Concentration 10 min,[9],0.0118 µM
same,Trep Concentration 20 min,[9],0.0187 µM
same,Trep Concentration 30 min,[9],0.0285 µM
same,Trep Concentration 60 min,[9],0.0499 µM
CCCCCC(CCC1C(O)CC2Cc3c(cccc3OCC(=O)O)CC21)OCCC (centres unmarked) [XLVI],Trep Concentration 0 min,[1],0 µM
same,Trep Concentration 10 min,[1],0.0342 µM
same,Trep Concentration 20 min,[1],0.0556 µM
same,Trep Concentration 30 min,[1],0.0656 µM
same,Trep Concentration 60 min,[1],0.0835 µM
same,AUC,[1],3.46 µmol·min/L
same,Trep Concentration (μM) 0 min,[2],0 µM
same,Trep Concentration (μM) 15 min,[2],0.0144 µM
same,Trep Concentration (μM) 30 min,[2],0.0194 µM
same,Trep Concentration (μM) 60 min,[2],0.0209 µM
same,Trep Concentration (μM) 120 min,[2],0.0224 µM
same,AUC,[2],2.27 µmol·min/L
same,Trep Concentration 0 min,[3],0 µM
same,Trep Concentration 30 min,[3],0 µM
same,Trep Concentration 60 min,[3],0 µM
same,Trep Concentration 120 min,[3],0 µM
same,AUC,[3],0.00 µmol·min/L
same,Trep Concentration (μM) 0 min,[4],0 µM
same,Trep Concentration (μM) 15 min,[4],0.00361 µM
same,Trep Concentration (μM) 30 min,[4],0.00376 µM
same,Trep Concentration (μM) 60 min,[4],0.00437 µM
same,Trep Concentration (μM) 120 min,[4],0.00465 µM
same,AUC,[4],0.47 µmol·min/L
same,AUC,[5],2.78 µmol·min/L
same,AUC,[6],4.67 µmol·min/L
same,Trep Concentration 0 min,[7],0 µM
same,Trep Concentration 10 min,[7],0.0425 µM
same,Trep Concentration 20 min,[7],0.0633 µM
same,Trep Concentration 30 min,[7],0.0882 µM
same,Trep Concentration 60 min,[7],0.123 µM
same,Trep Concentration (μM) 0 min,[8],0 µM
same,Trep Concentration (μM) 15 min,[8],0.00507 µM
same,Trep Concentration (μM) 30 min,[8],0.00509 µM
same,Trep Concentration (μM) 60 min,[8],0.00568 µM
same,Trep Concentration (μM) 120 min,[8],0.0061 µM
same,AUC,[8],0.63 µmol·min/L
same,Trep Concentration 0 min,[9],0 µM
same,Trep Concentration 10 min,[9],0.0211 µM
same,Trep Concentration 20 min,[9],0.0334 µM
same,Trep Concentration 30 min,[9],0.0485 µM
same,Trep Concentration 60 min,[9],0.0841 µM
CCCCCC(CCC1C(O)CC2Cc3c(cccc3OCC(=O)O)CC21)OC (centres unmarked) [XLV],Trep Concentration 0 min,[1],0.00583 µM
same,Trep Concentration 10 min,[1],0.104 µM
same,Trep Concentration 20 min,[1],0.156 µM
same,Trep Concentration 30 min,[1],0.21 µM
same,Trep Concentration 60 min,[1],0.292 µM
same,AUC,[1],11.21 µmol·min/L
same,Trep Concentration (μM) 0 min,[2],0 µM
same,Trep Concentration (μM) 15 min,[2],0.00378 µM
same,Trep Concentration (μM) 30 min,[2],0.00483 µM
same,Trep Concentration (μM) 60 min,[2],0.00537 µM
same,Trep Concentration (μM) 120 min,[2],0.00521 µM
same,AUC,[2],0.56 µmol·min/L
same,Trep Concentration 0 min,[3],0 µM
same,Trep Concentration 30 min,[3],0 µM
same,Trep Concentration 60 min,[3],0 µM
same,Trep Concentration 120 min,[3],0 µM
same,AUC,[3],0.00 µmol·min/L
same,Trep Concentration (μM) 0 min,[4],0 µM
same,Trep Concentration (μM) 15 min,[4],0 µM
same,Trep Concentration (μM) 30 min,[4],0 µM
same,Trep Concentration (μM) 60 min,[4],0 µM
same,Trep Concentration (μM) 120 min,[4],0 µM
same,AUC,[4],0.00 µmol·min/L
same,AUC,[5],0.23 µmol·min/L
same,AUC,[6],0.83 µmol·min/L
same,Trep Concentration 0 min,[7],0 µM
same,Trep Concentration 10 min,[7],0.00607 µM
same,Trep Concentration 20 min,[7],0.00992 µM
same,Trep Concentration 30 min,[7],0.0162 µM
same,Trep Concentration 60 min,[7],0.023 µM
same,Trep Concentration (μM) 0 min,[8],0 µM
same,Trep Concentration (μM) 15 min,[8],0.0417 µM
same,Trep Concentration (μM) 30 min,[8],0.0533 µM
same,Trep Concentration (μM) 60 min,[8],0.0724 µM
same,Trep Concentration (μM) 120 min,[8],0.0734 µM
same,AUC,[8],7.29 µmol·min/L
same,Trep Concentration 0 min,[9],0 µM
same,Trep Concentration 10 min,[9],0 µM
same,Trep Concentration 20 min,[9],0.00323 µM
same,Trep Concentration 30 min,[9],0.00529 µM
same,Trep Concentration 60 min,[9],0.00637 µM
CCCCCC(CCC1C(O)CC2Cc3c(cccc3OCC(=O)O)CC21)OC(=O)CCC(=O)N1CCOCC1 (centres unmarked) [XXXIII],Trep Concentration 0 min,[1],0 µM
same,Trep Concentration 10 min,[1],0 µM
same,Trep Concentration 20 min,[1],0 µM
same,Trep Concentration 30 min,[1],0 µM
same,Trep Concentration 60 min,[1],0 µM
same,AUC,[1],0.00 µmol·min/L
same,Trep Concentration (μM) 0 min,[2],0 µM
same,Trep Concentration (μM) 15 min,[2],0.0753 µM
same,Trep Concentration (μM) 30 min,[2],0.132 µM
same,Trep Concentration (μM) 60 min,[2],0.18 µM
same,Trep Concentration (μM) 120 min,[2],0.238 µM
same,AUC,[2],19.34 µmol·min/L
same,Trep Concentration 0 min,[3],0 µM
same,Trep Concentration 30 min,[3],0 µM
same,Trep Concentration 60 min,[3],0 µM
same,Trep Concentration 120 min,[3],0 µM
same,AUC,[3],0.00 µmol·min/L
same,Trep Concentration (μM) 0 min,[4],0 µM
same,Trep Concentration (μM) 15 min,[4],0.0287 µM
same,Trep Concentration (μM) 30 min,[4],0.03796 µM
same,Trep Concentration (μM) 60 min,[4],0.0584 µM
same,Trep Concentration (μM) 120 min,[4],0.0754 µM
same,AUC,[4],6.18 µmol·min/L
same,AUC,[5],5.10 µmol·min/L
same,AUC,[6],1.90 µmol·min/L
same,Trep Concentration 0 min,[7],0.0107 µM
same,Trep Concentration 10 min,[7],0.0193 µM
same,Trep Concentration 20 min,[7],0.0291 µM
same,Trep Concentration 30 min,[7],0.0305 µM
same,Trep Concentration 60 min,[7],0.0498 µM
same,Trep Concentration (μM) 0 min,[8],0 µM
same,Trep Concentration (μM) 15 min,[8],0.0192 µM
same,Trep Concentration (μM) 30 min,[8],0.0265 µM
same,Trep Concentration (μM) 60 min,[8],0.0464 µM
same,Trep Concentration (μM) 120 min,[8],0.0728 µM
same,AUC,[8],5.16 µmol·min/L
same,Trep Concentration 0 min,[9],0.0247 µM
same,Trep Concentration 10 min,[9],0.0494 µM
same,Trep Concentration 20 min,[9],0.0751 µM
same,Trep Concentration 30 min,[9],0.0888 µM
same,Trep Concentration 60 min,[9],0.13 µM
CCCCCC(CCC1C(O)CC2Cc3c(cccc3OCC(=O)O)CC21)OC(=O)CCN (centres unmarked) [XXXVII],Trep Concentration 0 min,[1],0 µM
same,Trep Concentration 10 min,[1],0.0147 µM
same,Trep Concentration 20 min,[1],0 µM
same,Trep Concentration 30 min,[1],0.0153 µM
same,Trep Concentration 60 min,[1],0.00987 µM
same,AUC,[1],0.60 µmol·min/L
same,Trep Concentration (μM) 0 min,[2],0 µM
same,Trep Concentration (μM) 15 min,[2],0.0136 µM
same,Trep Concentration (μM) 30 min,[2],0.0199 µM
same,Trep Concentration (μM) 60 min,[2],0.106 µM
same,Trep Concentration (μM) 120 min,[2],0.0527 µM
same,AUC,[2],7.00 µmol·min/L
same,Trep Concentration 0 min,[3],0 µM
same,Trep Concentration 30 min,[3],0 µM
same,Trep Concentration 60 min,[3],0.0137 µM
same,Trep Concentration 120 min,[3],0.0304 µM
same,AUC,[3],1.53 µmol·min/L
same,Trep Concentration (μM) 0 min,[4],0 µM
same,Trep Concentration (μM) 15 min,[4],0.0424 µM
same,Trep Concentration (μM) 30 min,[4],0.0879 µM
same,Trep Concentration (μM) 60 min,[4],0.147 µM
same,Trep Concentration (μM) 120 min,[4],0.248 µM
same,AUC,[4],16.67 µmol·min/L
same,AUC,[5],1.72 µmol·min/L
same,AUC,[6],0.00 µmol·min/L
same,Trep Concentration 0 min,[7],0 µM
same,Trep Concentration 10 min,[7],0 µM
same,Trep Concentration 20 min,[7],0 µM
same,Trep Concentration 30 min,[7],0 µM
same,Trep Concentration 60 min,[7],0 µM
same,Trep Concentration (μM) 0 min,[8],0 µM
same,Trep Concentration (μM) 15 min,[8],0.0481 µM
same,Trep Concentration (μM) 30 min,[8],0.041 µM
same,Trep Concentration (μM) 60 min,[8],0.0715 µM
same,Trep Concentration (μM) 120 min,[8],0.115 µM
same,AUC,[8],8.31 µmol·min/L
same,Trep Concentration 0 min,[9],0.0163 µM
same,Trep Concentration 20 min,[9],0.0295 µM
same,Trep Concentration 30 min,[9],0.0273 µM
same,Trep Concentration 60 min,[9],0.0415 µM
